Source: US20180133190A1, “MONOACYLGLYCEROLS AND FAT-SOLUBLE NUTRIENTS FOR USE IN THE TREATMENT OF NUTRIENT DEFICIENCY FROM MALDIGESTION” (NESTEC S.A., priority 2013, published 2018)

Experiments:
[1] = lipid maldigestion or malabsorption rat model (XENICAL-induced): EPA level in red blood cell lipids; assay type: in vivo, rats
Description: The concept was tested in a lipid maldigestion or malabsorption rat model. The maldigestion or malabsorption condition was obtained using XENICAL® (ORLISTAT), a pancreatic and gastric lipases inhibitor (tetrahydrolipstatin; see FIG. 7). Rats were fed during 21 days with long-chain polyunsaturated fatty acid (LC-PUFA) supplements containing mainly eicosapentaenoic (EPA) acid. Fish oil was used as a source of triacylglycerols, and different EPA glycerides were evaluated. XENICAL® (ORLISTAT) was given at a level sufficient to decrease lipid absorption by 40%. A group receiving fish oil without XENICAL® (ORLISTAT) was used as a positive control. At different time intervals (D3, D7, […]), the fatty acid profiles of red blood cell and plasma lipids were determined. At the end of the experiment, the fatty acid profiles of different tissues were determined. The main objective was to follow the level of EPA in red blood cell and plasma lipids. The main comparison evaluated was the difference in EPA level between the group receiving EPA-containing sn-1(3) MAG in combination with XENICAL® (ORLISTAT) and the positive control group (fish oil+XENICAL® (ORLISTAT)). […] This comparison corroborates the validity of the model.

[2] = clinical study: delivery of EPA under lipid maldigestion conditions induced by XENICAL (ORLISTAT); assay type: in vivo, humans
Description: This clinical study compared the efficacy of sn-1(3) MAG and fish oil (TAG) in delivering EPA in humans under lipid maldigestion conditions induced by XENICAL® (ORLISTAT). The comparison was tested in volunteers having a BMI of 37-40 kg/m2 and treated with XENICAL® (ORLISTAT) to induce lipid maldigestion or not treated with XENICAL® (ORLISTAT). The primary objective was to assess accretion of EPA in erythrocytes over 21 days when consumed as fish oil (TAG) or sn-1(3) MAG. The secondary objectives were to assess accretion of EPA in plasma over 21 days and also to assess the pharmacokinetics of EPA after an acute dose either in the form of sn-1(3) MAG or TAG (AUC in chylomicrons over 10 hours postprandial).

Structure (SMILES)	incorporation of LC-PUFAs in tissue ([1]; rats, conditions of lipid maldigestion or malabsorption)	level of EPA incorporated in red blood cells vs fish oil group (without XENICAL) ([1]; rats, with XENICAL (ORLISTAT), day 7, FIG. 2)	level of EPA incorporated in red blood cells vs fish oil + XENICAL (ORLISTAT) group ([1]; rats, with XENICAL (ORLISTAT), day 7, all P values lower than 0.05, FIG. 2)	chronic effect: accretion of EPA in erythrocytes after 21 days ([2]; humans, with XENICAL (ORLISTAT), in comparison to fish oil and XENICAL, p=0.0001, FIG. 5)	chronic effect: accretion of EPA in plasma after 21 days ([2]; humans, with XENICAL (ORLISTAT), relative to fish oil and XENICAL, p=0.0003, FIG. 6)	carrier for EPA compared with fish oil (TAG) ([2]; obese subjects treated with XENICAL (ORLISTAT))	EPA incorporation in red blood cells, effect of lipase inhibitor ([1]; rats fed fish oil with vs without XENICAL (ORLISTAT), day 7, FIG. 2)
CC/C=C\C/C=C\C/C=C\C/C=C\C/C=C\CCCC(=O)OCC(O)CO (stereo not shown) [sn-1(3) MAG that contained EPA, sn-1(3)-monoeicosapentaenoylglycerol]	the incorporation in tissue is improved	even higher than the fish oil group	statistically higher	statistically significant	statistically significant	better carrier for EPA than fish oil (TAG)	
CCCCCCCCCCC[C@@H](C[C@@H]1OC(=O)[C@H]1CCCCCC)OC(=O)[C@H](CC(C)C)NC=O [XENICAL® (ORLISTAT), tetrahydrolipstatin, reference compound]							decreases EPA incorporation in red blood cells
